The values below come from the COVID Moonshot data (paper PMC7615835).

Values joined by “and” are separate entries in the source; they are usually repeats but may differ in a detail not shown here. Equal entries are not always repeated.

For series [1] the following is noted: in vivo, iv, 0.5 mg/kg.
Series [2] addresses SARS-CoV-2 Main Protease (SARS-CoV-2) (UniProt P0DTD1).
The conditions of series [3]: a549.

As a reminder, the AUC(0-inf) is total exposure, with the tail of the curve extrapolated. A word on the AUC(0-t): it is the area under the concentration-time curve up to a stated or last time point. For orientation: MRT inf means the average time that molecules of a dose stay in the body. As usually defined, the MRT last is the average time that molecules of a dose stay in the body. Broadly, the Vd is the apparent volume that relates the amount in the body to the concentration in plasma or blood. Broadly, the clearance is the rate of elimination divided by the concentration. A lower clearance goes with inefficient removal. The term half-life denotes how long it takes for the measured level to halve. Lower therefore signals rapid decline. A word on the IC50: it is the midpoint of a concentration-inhibition curve. A high value points to weaker potency in that assay. For the molecule `Cc1cc2c(NC(=O)C3CCOc4ccc(Cl)cc43)cncc2s1` (stereo not drawn), in series [1] (rat), the AUC(0-inf) was 122 ng·h/mL and 130 ng·h/mL; the AUC(0-t) is 118 ng·h/mL and 128 ng·h/mL; the C0 is 342 ng/mL and 378 ng/mL; the MRT inf is 26.3 min and 28.9 min. Moreover, in series [1] (rat), the MRT last is 25.1 min and 24.1 min; the Vd was 1.76 L/kg and 1.52 L/kg; the clearance is 60.8 mL/min/kg and 58 mL/min/kg; the half-life was 22.4 min and 25 min. This molecule also registered an IC50 in series [2] of 228 nM.
In the case of `O=C(Nc1cncc2ccccc12)C1CN(S(=O)(=O)C2CC2)Cc2ccc(Cl)cc21` (stereo not drawn), in series [1] (mouse), the AUC(0-inf) was 112 ng·h/mL and 120 ng·h/mL; the area under the curve AUC(0-t) is 109 ng·h/mL and 116 ng·h/mL; the C0 was 314 ng/mL and 396 ng/mL; the MRT inf is 17.5 min and 18 min. For the same molecule, in series [1] (mouse), the MRT last was 16 min and 15.5 min; the Vd is 1.3 L/kg and 1.25 L/kg; the clearance is 74.5 mL/min/kg and 69.4 mL/min/kg; the half-life was 10.7 min and 12.7 min. For the same molecule, in series [2], the IC50 came out at 310 nM.
Take `O=C(Cc1cccc(Cl)c1)Nc1cncc2cn[nH]c12`: in series [1] (rat), the AUC(0-inf) was 216 ng·h/mL and 364 ng·h/mL; the AUC(0-t) was 216 ng·h/mL and 356 ng·h/mL; the C0 was 986 ng/mL and 1030 ng/mL; the MRT inf was 25.6 min and 15.7 min. In addition, in series [1] (rat), the MRT last was 15.4 min and 23.3 min; the Vd is 0.604 L/kg and 0.594 L/kg; the clearance was 38.6 mL/min/kg and 25.6 mL/min/kg; the half-life was 14.4 min and 19.9 min. This molecule also gave an IC50 in series [2] of 2100 nM.
Consider `CNC(=O)N1Cc2ccc(Cl)cc2C(C(=O)Nc2cncc3ccccc23)C1` (stereo not drawn), for which, in series [1] (mouse), the AUC(0-inf) is 97.6 ng·h/mL and 117 ng·h/mL; the AUC(0-t) is 94.9 ng·h/mL and 115 ng·h/mL; the C0 was 328 ng/mL and 570 ng/mL; the MRT inf was 16.4 min and 13.4 min. Moreover, in series [1] (mouse), the MRT last was 14.7 min and 12.5 min; the Vd was 1.32 L/kg and 0.896 L/kg; the clearance was 80.4 mL/min/kg and 68.2 mL/min/kg; the half-life is 11.5 min and 9.96 min. In addition, the IC50 in series [2] worked out at 272 nM.
On to `C=CC(=O)N(C(=O)C1CCOc2ccc(Cl)cc21)c1cncc2ccccc12` (stereo not drawn), for which the CC50 in series [3] is over 10000 nM.
As to `CNS(=O)(=O)N1Cc2ccc(Cl)cc2C(C(=O)Nc2cncc3ccccc23)C1` (stereo not drawn), in series [1] (rat), the AUC(0-inf) was 185 ng·h/mL and 255 ng·h/mL and 157 ng·h/mL; the AUC(0-t) was 183 ng·h/mL and 254 ng·h/mL and 155 ng·h/mL; the C0 was 507 ng/mL and 850 ng/mL and 519 ng/mL; the MRT inf was 31.6 min and 38.9 min and 23.9 min. In series [1] (rat), the MRT last is 36.1 min and 30.6 min and 22.1 min; the Vd is 1.75 L/kg and 1.07 L/kg and 1.5 L/kg; the clearance is 45.1 mL/min/kg and 33.3 mL/min/kg and 62.7 mL/min/kg; the half-life is 41 min and 32.2 min and 20 min. Further, the IC50 in series [2] came out at 149 nM.
On to `CS(=O)(=O)N1Cc2ccc(Cl)cc2C(C(=O)Nc2cncc3c2CCCC3)C1` (stereo not drawn), for which, in series [1] (rat), the AUC(0-inf) was 196 ng·h/mL and 264 ng·h/mL; the AUC(0-t) is 195 ng·h/mL and 262 ng·h/mL; the C0 is 541 ng/mL and 625 ng/mL; the mean residence time (MRT inf) is 35.6 min and 31 min. In series [1] (rat), the MRT last was 29.8 min and 34 min; the Vd is 1.32 L/kg and 1.14 L/kg; the clearance was 42.5 mL/min/kg and 33 mL/min/kg; the half-life was 30.6 min and 25.6 min. This molecule came in with an IC50 in series [2] of 642 nM.
`O=C(Cc1cc(Cl)cc(Nc2cc(Cl)nc(Cl)n2)c1)Nc1cncc2ccccc12` yielded an IC50 in series [2] of 1830 nM.
As for `CC(=O)N(c1ccc(N)cc1)c1cc(Cl)cc(CC(=O)Nc2cncc3ccccc23)c1`, the IC50 in series [2] is 2320 nM.
On the same count and under the same terms, in the case of `O=C(NCCc1cccc(F)c1)C(c1cccnc1)N(C(=O)c1cnc[nH]1)c1ccc2c(c1)COCC2` (stereo not drawn) it was over 99000 nM.
The same measure, in the same setting: under `O=C(Cc1cccc(Cl)c1)Nc1cccnc1` stands 53700 nM; under `COc1ccccc1OCCNC(=O)c1cc(N)cc2ccccc12`, over 99500 nM.
In series [2], `O=C(Cc1cc(Cl)cc(NCCc2ccc(Cl)c(Cl)c2)c1)Nc1cncc2ccccc12` registered an IC50 of 5410 nM.
The same measure, in the same setting: in the case of `Cc1ccncc1NC(=O)Cc1cccc(-c2cn[nH]c2)c1` it was 53200 nM.
Molecule `CN(C)c1ccc(C(Cc2ccsc2)C(=O)Nc2nnc3ccccn23)cc1` (stereo not drawn) registered an IC50 in series [2] of over 99500 nM.
Still for that read-out and setting: under `O=C(Cc1cc(Cl)cc(NCCc2ccccc2C(F)(F)F)c1)Nc1cncc2ccccc12` stands 2970 nM.
The same measure, in the same setting: under `C=CC(=O)NCc1ccccc1S(=O)(=O)NC(C)(C)C` stands over 99500 nM.
Same read-out and setting: in the case of `O=C(Cc1cc(Cl)cc(Nc2cc(Cl)c(F)cc2F)c1)Nc1cncc2ccccc12` it was 1740 nM; in that of `CCOC(=O)c1ncoc1CNC(=O)C(c1cccnc1)N(C(=O)c1cocn1)c1ccc(C(C)(C)C)cc1` (stereo not drawn), 5880 nM; in that of `O=C1NCC(C(=O)Nc2cnn3c2CCCC3)c2cc(Cl)ccc21` (stereo not drawn), 30500 nM.
For `Cc1cc(Br)c(Nc2cc(Cl)cc(CC(=O)Nc3cncc4ccccc34)c2)c([N+](=O)[O-])c1`, in series [2], the IC50 is 1940 nM.
As for `COCC1(C(=O)Nc2cncc3ccccc23)CCOc2cc(Cl)c(Cl)cc21` (stereo not drawn), in series [2], the IC50 came to 4040 nM.
The same measure, in the same setting: in the case of `N#CCN1Cc2ccc(Cl)cc2C(C(=O)Nc2cncc3ccccc23)C1` (stereo not drawn) it was 335 nM; in that of `O=C(Cc1cccc(Cl)c1)Nc1cnccc1-c1ccccc1`, 40900 nM; in that of `O=C(Cc1cc(Cl)cc(Nc2n[nH]cc2Br)c1)Nc1cncc2ccccc12`, 5040 nM.
With `COc1nc2ncc(C(C(=O)NCCc3cccc(F)c3)N(C(=O)c3cocn3)c3ccc(C(C)(C)C)cc3)cn2n1` (stereo not drawn), in series [2], the IC50 is 33400 nM.
Still for that read-out and setting: under `O=C(Nc1nncn1C1CC1)C1CCOc2ccc(Cl)cc21` (stereo not drawn) stands 513 nM and 696 nM; under `Cc1ccc(Br)nc1C(=O)NC(C)c1nnc2c(=O)[nH]ccn12` (stereo not drawn), over 99500 nM; under `O=C(Cc1cncnc1)Nc1cc(F)cc(OC2CC(=O)N2)c1` (stereo not drawn), 24600 nM and 25300 nM.
The same measure, in the same setting: under `O=C(NNc1nc2ccccc2[nH]1)c1cc(O)nc2ccccc12` stands 25800 nM.
The same measure, in the same setting: in the case of `O=C(Cc1cc(Cl)cc(NCc2ccc([N+](=O)[O-])cc2)c1)Nc1cncc2ccccc12` it was 1820 nM; in that of `CC1(CS(=O)(=O)N2Cc3ccc(Cl)cc3C(C(=O)Nc3cncc4ccccc34)C2)CC1` (stereo not drawn), 98 nM; in that of `O=C(Cc1cc(Cl)cc(Nc2cnc(Br)c(Cl)n2)c1)Nc1cncc2ccccc12`, 1940 nM.
In series [2], `CN1C(=O)CCc2cc(N(C(=O)c3cocn3)C(C(=O)NCCc3cccc(F)c3)c3cccnc3)ccc21` (stereo not drawn) returned an IC50 of 63500 nM.
In series [2], `O=CNc1ccc(C(=O)NC(c2ccccc2)C2CCOCC2)cc1` (stereo not drawn) yielded an IC50 of over 99500 nM.
